One data set concerns S. mutans Gtfs. As to the kind of experiment: Gtf inhibition determined by glucan quantification. It is filed as biochemical, Streptococcus mutans. Particulars: role: inhibitor. The source says:
The interspecies co-adherence between S. mutans and other microorganisms in the oral cavity is critical for biofilm formation and cariogenicity. Though the mechanisms of such adhesions and co-aggregations are not fully elucidated, it is believed that the extracellular polysaccharide (EPS) matrix of S. mutans has an important role in this process^49, 50. It is reported that glucans synthesized by Gtfs when incorporated into the tooth pellicle to provide enhanced binding sites for other microorganisms to form stable and persistent microcolonies, which provides mechanical stability to the EPS matrix^50, 51. Therefore, Gtf inhibition assays were performed to assess the ability of HA5 to inhibit the Gtfs and glucan production using a reported procedure and IC50 value was calculated^52.
HA5 is a polyhydroxy compound that contains a Michael acceptor functionality which raises concerns about non-specific and covalent binding.
Gtf inhibition determined by glucan quantification assays. Overnight cultures of S. mutans UA159 were centrifuged (6500 rpm, 4° C., 10 min) to remove cells. Supernatant was mixed with ethanol (1:1) and incubated at −80° C. for 1 h. The precipitated Gtfs were palleted using centrifugation and resuspended in chemically defined media (CDM) 10 μL of Gtfs suspended in CDM were assayed on Ibidi slides with varying concentrations of inhibitor, 1% sucrose, 1% DMSO and 1 μM Cascade blue dye in CDM. The slides were then incubated at 37° C. with 5% CO2 for 16 h after which, the wells of Ibidi slides were gently rinsed with 1×PBS and treated with 1×PBS for fluorescence microscopy imaging. The images obtained were processed in ImageJ to quantify glucans and graphed in GraphPad Prism.
Gtf inhibition assays were performed to assess the ability of HA6 to inhibit the Gtfs and glucan production using a reported procedure and IC50 value was calculated^[44, 45] Overnight cultures of S. mutans UA159 were centrifuged (6500 rpm, 4° C., 10 min) to remove the cells. Supernatant was mixed with ethanol (1:1) and incubated at −80° C. for 1 h. The precipitated Gtfs were palleted using centrifugation and resuspended in CDM (1 mL). 10 μL of Gtfs suspension in CDM was assayed on Ibidi slides with varying concentrations of PEHA5 or HA6, 1% sucrose, 1% DMSO and 1 μM Cascade blue dextran conjugated dye in CDM. The slides were then incubated at 37° C. with 5% CO2 for 16 h after which, the wells of Ibidi slides were gently rinsed with 1×PBS and imaged using fluorescence microscopy. The images obtained were processed in ImageJ to quantify glucans and graphed in GraphPad Prism 10.0.2.

The target in a further data set is GtfB (Streptococcus mutans, UniProt P08987). Description: HA5/GtfB X-ray co-crystal structure. It is filed as binding. Particulars: catalytic domain of GtfB.
Chain of GtfB (P08987 265-1143): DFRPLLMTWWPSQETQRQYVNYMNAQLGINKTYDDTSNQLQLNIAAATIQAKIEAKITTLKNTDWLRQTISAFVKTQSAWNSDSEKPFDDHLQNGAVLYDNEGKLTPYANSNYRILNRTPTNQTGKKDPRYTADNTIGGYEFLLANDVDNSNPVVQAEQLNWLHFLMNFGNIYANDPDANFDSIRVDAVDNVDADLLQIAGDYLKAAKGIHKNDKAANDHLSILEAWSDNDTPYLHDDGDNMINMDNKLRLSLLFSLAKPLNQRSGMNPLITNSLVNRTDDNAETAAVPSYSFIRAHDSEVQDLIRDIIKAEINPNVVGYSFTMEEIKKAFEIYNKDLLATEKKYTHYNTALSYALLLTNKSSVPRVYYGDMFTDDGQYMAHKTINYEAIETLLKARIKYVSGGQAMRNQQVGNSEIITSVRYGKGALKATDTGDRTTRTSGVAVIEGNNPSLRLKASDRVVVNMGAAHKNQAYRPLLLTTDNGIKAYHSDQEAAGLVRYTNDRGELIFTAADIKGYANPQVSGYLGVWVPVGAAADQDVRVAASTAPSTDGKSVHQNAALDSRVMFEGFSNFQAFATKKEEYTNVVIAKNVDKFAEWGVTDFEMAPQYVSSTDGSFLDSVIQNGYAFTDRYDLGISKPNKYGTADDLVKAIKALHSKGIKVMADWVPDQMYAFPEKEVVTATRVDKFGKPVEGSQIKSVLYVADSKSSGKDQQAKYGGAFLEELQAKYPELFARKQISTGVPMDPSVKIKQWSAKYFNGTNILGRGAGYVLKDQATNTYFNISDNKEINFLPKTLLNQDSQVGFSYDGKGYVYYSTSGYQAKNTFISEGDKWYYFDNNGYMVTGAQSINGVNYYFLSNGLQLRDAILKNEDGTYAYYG
Data set [1] is described as follows: Body weight of animals, PEHA5 / HA5 study. It is filed as in vivo, gnotobiotic rats. The conditions noted are these: 100 μM. The source says: The effect of PEHA5 on S. mutans colonization and virulence was compared side-by-side with HA5 using a well-established gnotobiotic rat model of dental caries^[50-54]. A (vehicle+infection only) group was included as a negative control. All rats from the experimental groups and from the control group were colonized with S. mutans UA159. […] Similar reductions in caries scores were also observed in sulcal caries scores and proximal caries scores (Table 5). We were unable to record the effect of the treatment on dentinal moderate (Dm) and dentinal extensive (Dx) scores in the proximal area due to the absence of dentinal lesions in the control and treated groups.
We used Fischer 344 rats that were bred and maintained in trexler isolators for this experiment. Male and female rat pups were removed from isolators at 20 days of age and randomly assigned into treatment groups of 5 rats/group in cages with filter tops. […] Each sample was serially diluted, plated on blood (BAP) and mitis-salivarius (MS) agar plates and incubated in an environment of 5% CO2 in air at 37° C. to quantify the level of total bacteria and S. mutans present in the plaque. […] After drying, the mandibles were sectioned and scored for caries activity using the Keyes method Caries scores were recorded for the buccal, sulcal and proximal molar surfaces individually so that differences among the surfaces can be distinguished. […]

Entries after “also recorded” stand apart in the source; their conditions may differ. Where two headings read alike, the source gives them in different places.

We go through one compound from US20260315431A1, “NANOMATERIAL ENCAPSULATED BIOFILM INHIBITORS FOR DENTAL CARIES TREATMENT” (THE UAB RESEARCH FOUNDATION, priority 2023, published 2026).

Regarding `O=C1/C(=C/c2cc(O)c(O)cc2O)Oc2ccccc21` [HA5, 2-[(2′,4′,5′-Trihydroxyphenyl)methylidene]-2,3-dihydro-1-benzofuran-3-one], the IC50 (usually the point on the concentration scale where inhibition reaches its midpoint) with S. mutans Gtfs (1% sucrose, 1% DMSO, no BME or Triton-X-100, read-out: Gtf inhibition (glucan production) IC50) was determined as 10.6 µM; in the data set with S. mutans Gtfs (no BME, unit M, read-out: Gtf inhibition (glucan production) IC50) it was 10.6 µM; in the data set on S. mutans Gtfs (with beta-mercaptoethanol 1 mM, read-out: Gtf inhibition IC50 in the presence of BME), 7.84 µM; in the data set with S. mutans Gtfs (with detergent Triton-X-100, read-out: Gtf inhibition IC50 in the presence of Triton-X-100) it was 5.16 µM. Further, the “binding in HA5/GtfB co-crystal structure” value on GtfB is “binding in the catalytic site of GtfB; also recorded: does not show any covalent bond”. The same compound gave a Weight in data set [1] of 145 ± 14 g. Also, the “weight loss” value in data set [1] (4-week treatment) was “did not experience any weight loss”.
